Laboratory results reported in PMC4980415 (Psychopharmacology, 2016).
Where a name gives a salt, the structure may show the parent alone. Read-outs that look alike come from different tables or passages of the source.

Legend:
[1] = tested on: Ca^2+ channel (L, DHP site); experiment: Off-target binding, General SEP II panel; details: 10 μM ITI-214, mean of n = 2
[2] = tested on: memory retrieval in male Wistar rats; experiment: Novel object recognition (NOR): retrieval, drug 2 h before T2; type: in vivo, rat; details: for Exploration time e1 (T1) / Exploration time e2 (T2): 2 h before T2, 24 h interval
Description: (§1) The drug was administered, per os (po), by gavage to rats in a volume of 2 ml/kg body weight. Oral dosing solutions were prepared fresh daily. […] The pH of the dosing solution was adjusted to ~pH 5.5 by dropwise addition of 0.1 N NaOH in saline and volume adjusted by addition of saline in preparation for intraperitoneal (ip) dosing. […] Control treatments were always the vehicle solutions of the corresponding drugs.
(§2) The object recognition test was performed as described elsewhere (Ennaceur and Delacour [1988]; Akkerman et al. 2014). The apparatus consisted of a circular arena, 83 cm in diameter. Half of the 40-cm-high wall was made of gray polyvinyl chloride, the other half of transparent polyvinyl chloride. The light intensity was equal in the different parts of the apparatus, as fluorescent red tubes provided a constant illumination of about 20 lx on the floor of the apparatus. Two objects were placed in a symmetrical position at about 10 cm from the gray wall. Four different sets of objects were used. The different objects were (1) a cone consisting of a gray polyvinyl chloride base (maximal diameter 18 cm) with a collar on top made of brass (total height 16 cm), (2) a standard 1 L transparent glass bottle (diameter 10 cm, height 22 cm) filled with water, (3) a large metal cube (10.0 × 5.0 × 7.5 cm) with two holes (diameter 1.9 cm), and (4) a large aluminum cube with a tapering top (13.0 × 8.0 × 8.0 cm). The objects used in this study were carefully selected to be “novelty neutral,” that is to say the rats have no innate preference for one over the other. In all cases, objects were of sufficient size and weight that rats could not move the objects.
(§3) A testing session consisted of two trials. The duration of each trial was 3 min. During the first trial (T1), the apparatus contained two identical objects (samples). Rats were placed in the apparatus facing the wall at the middle of the front (transparent) segment. After the first exploration period, the rat was put back in its home cage. Subsequently, after a 24-h delay interval, the rat was put in the apparatus for the second trial (T2). The times spent in exploring each object during T1 and T2 were recorded manually using a personal computer.
(§4) Exploration was defined as follows: directing the nose to the object at a distance of no more than 2 cm and/or touching the object with the nose. Sitting on the object was not considered as exploratory behavior. In order to avoid the presence of olfactory cues, the objects were always thoroughly cleaned with a 70 % ethanol solution before each trial. All combinations and locations of objects were used in a balanced manner to reduce potential biases due to preferences for particular locations or objects.
(§5) During the first 2 weeks after animal arrival, the animals were handled daily. They were then adapted to the procedure over the period of 2 days by allowing them to explore the apparatus (without any objects) for 3 min twice each day. […] After this, the rats were assigned to treatment conditions in a balanced manner, thereby insuring an equal distribution of object combinations among the treatment conditions. […] In all experiments, a 24-h inter-trial interval was used. In all cases, the experimenter was unaware of the treatment conditions that were being tested.
(§6) The basic measure recorded was the time spent by each rat exploring an object during T1 and T2. The time spent in exploring the two identical samples was represented by “a1” and “a2.” The time spent in T2 in exploring the sample and new object was represented by “a” and “b,” respectively. The following variables were calculated: e1 = a1 + a2, e2 = a + b, and d2 = (b − a) / e2. The e1 and e2 are measures of the total exploration time of both objects during T1 and T2, respectively. Differences in exploration times between treatment conditions were analyzed using a t test or one-way ANOVA. […]

[3] = tested on: memory acquisition in male Wistar rats; experiment: Novel object recognition (NOR): acquisition, drug 2 h before T1; type: in vivo, rat; details: for Exploration time e1 (T1) / Exploration time e2 (T2): 2 h before T1, 24 h interval
Description: as §1, §2, §3, §4, §5, §6

NK1 (h), neurokinin = target: T1, NK1 (h), neurokinin (Homo sapiens, UniProt P25103); experiment: Off-target binding, General SEP II panel; details: 10 μM ITI-214, mean of n = 2
T1 construct: Caliper Life Sciences (contract screen)

[4] = tested on: conditioned avoidance responding in male Wistar rats; experiment: Conditioned avoidance response (CAR); type: in vivo, rat
Description: as §1
Avoidance behavior, escape behavior, escape failures, and inter-trial crosses were recorded, as described here: (1) avoidance (response to CS within 10 s); (2) escape (response to CS + UCS); and (3) escape failure (if the rat was unable to respond to the shock by moving into the opposite compartment within 50 s, the trial was terminated). The inter-trial interval (end of trial to start of new trial) varied randomly between 20 and 40 s. Rats were trained for five consecutive days and adapted to the shuttle box 5 min before each training session. Training sessions consisted of about 20 trials, randomly distributed over 15 min. Only rats that performed at least 90 % avoidance on the last day of training were included in the experiments. All subsequent test sessions were preceded by a pre-test to verify continued performance in the paradigm. Pre-tests and test sessions consisted of approximately ten trials, each randomly distributed over a 7.5-min period. […] Experimental days were always separated by at least two non-experimental days. Experimental tests were separated by at least 2 days to insure drug washout.
Results from the conditioned avoidance responding (CAR) protocol were analyzed using non-parametric procedures.

PDE1 isoforms = experiment: PDE1 potency and selectivity versus other PDE families; type: biochemical; details: span of Table 1 values; read-out: Ki for inhibition of recombinant or bovine PDE1 enzymes
[5] = tested on: Na^+ channel (site 2), sodium channel; experiment: Off-target binding, General SEP II panel; details: 10 μM ITI-214, mean of n = 2
[6] = Pharmacokinetics of ITI-214 in rats; type: in vivo; details: rat, oral; for concentration at 2 h: 3 mg/kg
From the text: Standard methods of tissue extraction were used.

T1 sequence (P25103 whole entry): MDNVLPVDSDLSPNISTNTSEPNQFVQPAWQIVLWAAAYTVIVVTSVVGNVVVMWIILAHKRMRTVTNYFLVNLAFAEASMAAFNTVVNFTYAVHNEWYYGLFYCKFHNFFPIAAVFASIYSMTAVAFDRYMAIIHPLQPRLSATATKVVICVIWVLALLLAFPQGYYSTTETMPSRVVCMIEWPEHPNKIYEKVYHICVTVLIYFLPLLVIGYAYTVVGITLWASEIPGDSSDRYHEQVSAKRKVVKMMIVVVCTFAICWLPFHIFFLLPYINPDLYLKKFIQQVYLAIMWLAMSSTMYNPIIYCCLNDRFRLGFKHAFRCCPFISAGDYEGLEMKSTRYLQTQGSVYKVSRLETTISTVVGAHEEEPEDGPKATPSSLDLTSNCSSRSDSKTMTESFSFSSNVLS

SMILES: CN1C(=O)c2c(nn(Cc3ccc(-c4cccc(F)n4)cc3)c2Nc2ccccc2)N2C1=N[C@@H]1CCC[C@@H]12 [ITI-214, (6aR,9aS)-2-(4-(6-fluoropyridin-2-yl)benzyl)-5-methyl-3-(phenylamino)-5,6a,7,8,9,9a-hexahydrocyclopenta-[4,5]imidazo[1,2-a]pyrazolo[4,3-e]pyrimidin-4-(2H)-one phosphate salt]
- % Binding [1]: 73.28%
- Exploration time e1 (T1) ([2]; 0.1 mg/kg po): 29.32 (1.82) s
- Exploration time e2 (T2) ([2]; 0.1 mg/kg po): 28.78 (2.08) s
- Exploration time e1 (T1) ([2]; 0.3 mg/kg po): 28.83 (1.84) s
- Exploration time e2 (T2) ([2]; 0.3 mg/kg po): 29.31 (1.52) s
- Exploration time e1 (T1) ([2]; 1 mg/kg po): 26.81 (1.72) s
- Exploration time e2 (T2) ([2]; 1 mg/kg po): 33.64 (2.35) s
- Exploration time e1 (T1) ([2]; 3 mg/kg po): 27.20 (1.90) s
- Exploration time e2 (T2) ([2]; 3 mg/kg po): 28.60 (1.13) s
- Exploration time e1 (T1) ([2]; 10 mg/kg po): 30.59 (1.98) s
- Exploration time e2 (T2) ([2]; 10 mg/kg po): 30.52 (1.87) s
- full effective dose (d2 different from chance and from vehicle), retrieval ([2]; po 2 h before T2): 1 mg/kg
- effect on exploratory behavior during T1 or T2 ([2]; retrieval and combined sub-threshold dose experiments): no effect on exploratory behavior
- Exploration time e1 (T1) ([3]; 0.1 mg/kg po): 28.38 (1.86) s
- Exploration time e2 (T2) ([3]; 0.1 mg/kg po): 27.33 (1.48) s
- Exploration time e1 (T1) ([3]; 0.3 mg/kg po): 27.55 (1.62) s
- Exploration time e2 (T2) ([3]; 0.3 mg/kg po): 26.10 (1.69) s
- Exploration time e1 (T1) ([3]; 1 mg/kg po): 27.97 (1.78) s
- Exploration time e2 (T2) ([3]; 1 mg/kg po): 29.38 (1.38) s
- Exploration time e1 (T1) ([3]; 3 mg/kg po): 27.28 (1.74) s
- Exploration time e2 (T2) ([3]; 3 mg/kg po): 28.73 (1.62) s
- Exploration time e1 (T1) ([3]; 10 mg/kg po): 26.21 (1.97) s
- Exploration time e2 (T2) ([3]; 10 mg/kg po): 28.15 (1.38) s
- effect on exploratory behavior during T1 or T2 ([3]; 0.1–10 mg/kg po 2 h before T1): no effect on exploratory behavior
- % Binding (NK1 (h), neurokinin): 30.93%
- effect on percent avoidances ([4]; 1 mg/kg po alone): no significant effect
- effect on number of escape failures ([4]; CAR paradigm): Neither risperidone nor ITI-214 had significant effects
- effect on avoidance behavior of rats given risperidone ([4]; ITI-214 1 mg/kg po with risperidone 0.8 mg/kg i.p.): did not affect avoidance behavior
- Ki (PDE1 isoforms): 0.034 to 0.058 nM
- % Binding [5]: 88.44%
- Tmax ([6]; brain): ~1.5 h
- concentration at 2 h ([6]; brain, plasma levels associated with optimal effects on acquisition, read-out: brain free fraction estimated): 0.12 nM
- concentration at 2 h ([6]; plasma, 2 h after drug administration, N = 12 rats, read-out: plasma level): 30.1 ± 13.4 ng/mL
- concentration at 2 h ([6]; plasma, 2 h after drug administration, read-out: free plasma concentration): 0.12 nM
